Columns and labels:
[1] = target: Vascular endothelial growth factor receptor 2 (Homo sapiens, UniProt P35968); experiment: Inhibition of human VEGFR-2 preincubated for 10 mins followed by addition of FAM-labeled peptide and incubated for 10 mins by Caliper motility shift assay
MCF7 = experiment: Antiproliferative activity against human MCF7 cells after 48 hrs by MTT assay; format: functional, cell-based; details: MCF7, 48 h
NCI-H460 = experiment: Antiproliferative activity against human NCI-H460 cells after 48 hrs by MTT assay; format: functional, cell-based; details: NCI-H460, 48 h
[2] = target: Epidermal growth factor receptor (Homo sapiens, UniProt P00533); experiment: Inhibition of human EGFR preincubated for 10 mins followed by addition of FAM-labeled peptide and incubated for 10 mins by Caliper motility shift assay
HT-29 = experiment: Antiproliferative activity against human HT-29 cells after 48 hrs by MTT assay; format: functional, cell-based; details: HT-29, 48 h

Sequence of Epidermal growth factor receptor (P00533 whole entry): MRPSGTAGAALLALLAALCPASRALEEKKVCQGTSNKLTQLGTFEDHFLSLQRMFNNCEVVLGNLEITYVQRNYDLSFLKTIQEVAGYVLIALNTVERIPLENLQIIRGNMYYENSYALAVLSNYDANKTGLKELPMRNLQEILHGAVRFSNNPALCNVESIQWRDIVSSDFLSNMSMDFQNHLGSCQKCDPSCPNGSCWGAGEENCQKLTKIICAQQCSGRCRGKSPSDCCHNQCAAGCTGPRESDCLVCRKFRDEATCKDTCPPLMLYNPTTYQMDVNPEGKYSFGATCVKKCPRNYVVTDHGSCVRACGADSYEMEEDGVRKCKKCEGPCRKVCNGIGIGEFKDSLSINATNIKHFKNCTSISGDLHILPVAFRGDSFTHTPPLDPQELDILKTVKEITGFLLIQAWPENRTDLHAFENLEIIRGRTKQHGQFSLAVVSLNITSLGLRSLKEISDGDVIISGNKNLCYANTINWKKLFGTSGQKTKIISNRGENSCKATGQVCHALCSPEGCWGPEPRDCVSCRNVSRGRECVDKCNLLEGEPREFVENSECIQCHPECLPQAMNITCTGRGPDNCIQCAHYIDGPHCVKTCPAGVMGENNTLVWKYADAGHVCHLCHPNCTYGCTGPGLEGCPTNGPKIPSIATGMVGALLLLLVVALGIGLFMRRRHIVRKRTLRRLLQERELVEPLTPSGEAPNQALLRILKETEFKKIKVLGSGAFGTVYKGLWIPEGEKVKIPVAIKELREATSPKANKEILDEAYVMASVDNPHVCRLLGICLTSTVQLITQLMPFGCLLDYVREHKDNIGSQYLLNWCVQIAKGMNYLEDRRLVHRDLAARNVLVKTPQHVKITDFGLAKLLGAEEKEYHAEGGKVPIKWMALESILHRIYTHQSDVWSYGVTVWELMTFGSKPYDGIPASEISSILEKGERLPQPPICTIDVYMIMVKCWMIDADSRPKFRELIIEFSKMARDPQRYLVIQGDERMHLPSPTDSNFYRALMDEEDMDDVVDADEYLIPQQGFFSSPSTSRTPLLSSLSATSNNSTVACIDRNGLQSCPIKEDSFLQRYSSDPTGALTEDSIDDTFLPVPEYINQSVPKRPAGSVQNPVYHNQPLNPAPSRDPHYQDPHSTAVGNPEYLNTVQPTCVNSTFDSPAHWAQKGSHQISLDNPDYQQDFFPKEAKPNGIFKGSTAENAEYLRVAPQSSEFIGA
Sequence of Vascular endothelial growth factor receptor 2 (P35968 whole entry): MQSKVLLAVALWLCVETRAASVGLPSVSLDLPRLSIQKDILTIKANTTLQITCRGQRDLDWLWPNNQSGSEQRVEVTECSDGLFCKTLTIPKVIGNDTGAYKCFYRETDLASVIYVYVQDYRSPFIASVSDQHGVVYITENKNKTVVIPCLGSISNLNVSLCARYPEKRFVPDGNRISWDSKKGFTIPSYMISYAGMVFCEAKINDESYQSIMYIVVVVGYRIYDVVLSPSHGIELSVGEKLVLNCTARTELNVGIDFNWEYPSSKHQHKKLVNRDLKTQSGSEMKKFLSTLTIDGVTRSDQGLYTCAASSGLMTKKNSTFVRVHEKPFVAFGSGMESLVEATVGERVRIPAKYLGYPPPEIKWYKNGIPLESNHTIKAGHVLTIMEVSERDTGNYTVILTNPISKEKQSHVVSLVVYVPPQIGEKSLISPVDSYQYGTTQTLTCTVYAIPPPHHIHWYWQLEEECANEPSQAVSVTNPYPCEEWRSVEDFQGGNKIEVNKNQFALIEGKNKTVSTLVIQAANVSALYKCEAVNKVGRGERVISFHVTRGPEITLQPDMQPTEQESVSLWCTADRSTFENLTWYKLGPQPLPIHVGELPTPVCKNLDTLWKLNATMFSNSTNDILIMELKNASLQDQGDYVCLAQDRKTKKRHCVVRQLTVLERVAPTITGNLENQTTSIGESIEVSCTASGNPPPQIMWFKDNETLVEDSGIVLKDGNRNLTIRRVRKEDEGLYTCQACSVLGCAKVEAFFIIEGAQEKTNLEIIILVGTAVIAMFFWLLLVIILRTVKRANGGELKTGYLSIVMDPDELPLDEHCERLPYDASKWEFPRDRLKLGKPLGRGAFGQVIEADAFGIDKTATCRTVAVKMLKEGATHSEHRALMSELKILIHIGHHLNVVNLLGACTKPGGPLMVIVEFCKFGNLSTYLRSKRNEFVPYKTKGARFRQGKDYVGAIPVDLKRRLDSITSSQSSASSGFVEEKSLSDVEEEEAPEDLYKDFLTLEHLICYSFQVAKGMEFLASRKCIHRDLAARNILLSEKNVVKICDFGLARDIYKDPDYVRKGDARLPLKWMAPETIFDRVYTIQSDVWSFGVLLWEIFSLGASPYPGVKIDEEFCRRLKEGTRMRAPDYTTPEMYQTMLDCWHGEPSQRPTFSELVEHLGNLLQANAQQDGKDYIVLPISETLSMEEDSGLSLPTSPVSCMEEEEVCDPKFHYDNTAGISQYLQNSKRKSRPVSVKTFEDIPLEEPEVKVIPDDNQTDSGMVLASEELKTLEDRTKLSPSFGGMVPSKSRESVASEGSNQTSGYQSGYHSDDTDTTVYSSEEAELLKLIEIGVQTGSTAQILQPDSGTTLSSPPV

| IC50 [1] [µM] | IC50 (MCF7) [µM] | IC50 (NCI-H460) [µM] | IC50 [2] [µM] | IC50 (HT-29) [µM] | SMILES |
| --- | --- | --- | --- | --- | --- |
| 4.72 | 36 | 30 | 4.61 | 26.1 | COc1cc2c(Nc3ccc(NC(=O)c4ccccc4)cc3)ncnc2cc1OCCN1CCCCC1 |
| 2.02 | 24.6 | 9.49 | 1.11 | 22.1 | COc1ccc(C(=O)Nc2ccc(Nc3ncnc4cc(OCCCN5CCN(C)CC5)c(OC)cc34)cc2)cc1 |
| > 10 | – | 16.1 | > 10 | > 100 | COc1ccc(C(=O)Nc2ccc(Nc3ncnc4cc(OCc5ccccc5)c(OC)cc34)cc2)cc1 |
| 1.86 | 53.2 | 26 | 1.33 | 5.54 | COc1cc2c(Nc3ccc(NC(=O)c4ccc(Cl)cc4)cc3)ncnc2cc1OCCCN1CCN(C)CC1 |
| 2.62 | 40.2 | 8 | 1.35 | 9.39 | COc1cc2c(Nc3ccc(NC(=O)c4ccc(Cl)cc4)cc3)ncnc2cc1OCCCN1CCOCC1 |
| > 10 | 56.4 | 21.1 | > 10 | > 100 | COc1cc2c(Nc3ccc(NC(=O)c4ccc(Cl)cc4)cc3)ncnc2cc1OCc1ccccc1 |
| 0.56 | 39 | 27.2 | – | 31.3 | COc1cc2c(Nc3ccc(NC(=O)c4ccccc4)cc3)ncnc2cc1OCCCN1CCN(C)CC1 |
| 1.99 | 4.34 | – | 0.3 | 7.94 | COc1cc2c(Nc3ccc(NC(=O)c4cccc(Cl)c4)cc3)ncnc2cc1OCCN1CCCCC1 |
| > 10 | > 100 | 46.1 | > 10 | > 100 | COc1cc2c(Nc3ccc(NC(=O)c4ccc(C)cc4)cc3)ncnc2cc1OCc1ccccc1 |

The next lines start with the compound.

| SMILES | IC50 [1] [µM] | IC50 (MCF7) [µM] | IC50 (NCI-H460) [µM] | IC50 [2] [µM] | IC50 (HT-29) [µM] |
| --- | --- | --- | --- | --- | --- |
| COc1cc2c(Nc3ccc(NC(=O)c4cccc(Cl)c4)cc3)ncnc2cc1OCc1ccccc1 | > 10 | > 100 | 12.5 | > 10 | – |
| COc1cc2c(Nc3ccc(NC(=O)c4cccc(Cl)c4)cc3)ncnc2cc1OCCCN1CCN(C)CC1 | 1.81 | 4.41 | 12 | 0.15 | 5.27 |
| COc1cc2c(Nc3ccc(NC(=O)c4ccc(C)cc4)cc3)ncnc2cc1OCCCN1CCOCC1 | 2 | 37.6 | – | 0.76 | 89.1 |
| COc1cc2c(Nc3ccc(NC(=O)c4ccccc4)cc3)ncnc2cc1OCc1ccccc1 | > 10 | > 100 | 62.4 | > 10 | 7.37 |
| COc1cc2c(Nc3ccc(NC(=O)c4cccc(Cl)c4)cc3)ncnc2cc1OCCCN1CCOCC1 | 2.99 | 7.8 | – | 0.23 | 21.3 |
| COc1cc2c(Nc3ccc(NC(=O)c4ccc(C)cc4)cc3)ncnc2cc1OCCN1CCCCC1 | 2.48 | – | – | > 10 | 6.85 |
| COc1cc2c(Nc3ccc(NC(=O)c4ccccc4Cl)cc3)ncnc2cc1OCCCN1CCN(C)CC1 | 1.71 | 15.4 | 36.2 | 0.02 | 23.2 |
| COc1cc2c(Nc3ccc(NC(=O)c4ccc(Cl)cc4)cc3)ncnc2cc1OCCN1CCCCC1 | 4.19 | 0.1 | 16 | > 10 | 5.12 |
| COc1cc2c(Nc3ccc(NC(=O)c4ccc(C)cc4)cc3)ncnc2cc1OCCCN1CCN(C)CC1 | 0.87 | 24.9 | 11.9 | 0.69 | 17.1 |
| COc1cc2c(Nc3ccc(NC(=O)c4ccccc4Cl)cc3)ncnc2cc1OCc1ccccc1 | > 10 | 78.2 | 28.2 | 0.73 | > 100 |
